Laboratory results published in patent US10383906B2, “Method for treating skin diseases with mangosteen rind extract” (XANTHO BIOTECHNOLOGY CO., LTD, priority 2015, dated 2019).

System: TNCB-induced atopic dermatitis in mice ears
Experiment: TNCB-induced atopic dermatitis in mice: ear thickness, ear weight, ear appearance, histopathology
Format: in vivo, BALB/c mice
Details: for Pathological slice average inflammation degree (average severity of the pathological changes): mice ears, HE staining, after three weeks of daily test substance, scale Grade 1 minimal to Grade 5 extremely severe
Description: The animals used in the experiments were 8-week-old BALB/c mice (purchased from LESCO Biotech), the body weight were 25 to 28 g and were quarantined by veterinarians for one week before entering the breeding room. The animals were divided into 9 groups, 3 in each group, a total of 27 mices. The temperature of the breeding room was set at 21±2° C., the humidity was set at 30 to 70%, and the environment was set for 12/12 hour light-dark cycle with unlimited supply of food and water.
In the animal experiments, 2-chloro-1,3,5-trinitrobezene (TNCB) was used to induce atopic dermatitis in mice and acetone was used as the solvent to prepare 1% of TNCB which was applied to mice ears (once every 2 days, the volume was 4 ml/kg) one week prior to testings. […] In addition, for those groups that were simultaneously provided with test ointments and test oral substances, the oral dose was 60 mg/kg and the volume was 10 ml/kg. When TNCB and the test substance were given on the same day, in order to reduce the effect of interactions between each other, TNCB and test substance were given at least 1 hour apart. The mangosteen paste of 0.5%, 1%, 2%, 3%, 5% respectively contained 20 mg/kg, 40 mg/kg, 80 mg/kg, 120 mg/kg and 200 mg/kg of extract of mangosteen rind.
Changes in body weight and ear thickness of the mice were monitored twice weekly. Blood of all experimental animals were collected before TNCB induction, after the induction and before the test substance was given and when being sacrificed. After the blood was centrifuged at 3000 rpm for 30 minutes at 4° C., serum samples were obtained and stored.
All animals were sacrificed at the end of the third week after the test substance was given. Mice ears were removed, photographed and stored in 10% of formalin solution for histopathological observation. HE staining was used for the pathological observation (conducted by the National Laboratory Animal Center).
Data are expressed as means±standard deviation […] and Student's t-test was used to compare the differences among treatment groups. Asterisks indicate significant differences, *p<0.05; **p<0.01; ***p<0.001.

[1] = inner rind versus outer rind extract experiment (4%)

CC(=O)OCC(=O)[C@@]1(O)CC[C@H]2[C@@H]3CCC4=CC(=O)CC[C@]4(C)[C@H]3[C@@H](O)C[C@@]21C [1% Hydrocortisone Acetate, hydrocortisone acetate]
Inhibition rate, ear thickness (degree of swelling of mice ears, compared with the model group, mangosteen paste dose series): 52.7% | Ear appearance after being sacrificed (ears removed at end of experiment (FIG. 4)): intact ear contour | Inhibition rate, ear weight (ears weighed after sacrifice, compared with the model group, mangosteen paste dose series): 82.4% | Inhibition rate (%), ear thickness [1]: 50.75% | Inhibition rate (%), ear weight [1]: 68.91% | Pathological slice average inflammation degree (average severity of the pathological changes): 3 ± 0 Grade | Pathological slice average inflammation degree (average severity of the pathological changes) (listed as 1% hydrocortisone acetate): 3 Grade
